Experimental data published in ChEMBL document CHEMBL3853283, “Nitric Oxide Inhibitory Meroterpenoids from the Fungus Penicillium purpurogenum MHZ 111” (J Nat Prod, 2016).

Key:
[1] = system: BV-2 microglial cells (Mus musculus); test: Antineuroinflammatory activity in mouse BV2 cells assessed as inhibition of LPS-induced nitric oxide production at 50 uM preincubated for 10 mins followed by LPS stimulation for 24 hrs by Griess assay
[2] = Antineuroinflammatory activity in […] of LPS-induced nitric oxide production preincubated for 10 mins followed by LPS stimulation for 24 hrs by Griess assay; format: functional, cell-based; details: BV-2
[3] = Cytotoxicity against […] cells assessed as decrease in cell viability up to 100 uM preincubated for 10 mins followed by LPS stimulation for 24 hrs by MTT assay; format: toxicity, cell-based; details: bv-2, 24 h

Structure (SMILES)	inhibition at 50 µM [1]	IC50 [2]	Activity [3]
C[C@H]1O[C@@H]2OC(=O)[C@]3(C)CC4=C(CO)C5=C(CC(=O)[C@]4(C)[C@H](C1=O)[C@H]23)C(C)(C)OC(=O)C5	< 50%		
COC(=O)[C@]12C(=O)[C@@](C)(O)C(=O)[C@](C)(C[C@H]3C(C)=C4CC(=O)OC(C)(C)C4=CC[C@@]31C)[C@]21CO1	< 50%		
CC1=C2CC(=O)OC(C)(C)C2=CC[C@@]2(C)[C@H]1C[C@@]1(C)C(=O)[C@@]3(C)O[C@]14COC(=O)[C@@]42C3=O	< 50%		
CC(=O)O[C@@H]1c2c3c(cc(O)c2C(=O)OC1C)O[C@@]1(C)[C@@H](O)C[C@H]2C(C)(C)C(=O)C=C[C@]2(C)[C@@H]1C3 (stereo partly drawn)	< 50%		
CC1Cc2c3c(cc(O)c2C(=O)O1)O[C@@]1(C)[C@@H](O)C[C@H]2C(C)(C)C(=O)C=C[C@]2(C)[C@@H]1C3 (stereo partly drawn)	< 50%		
COc1ccc2c(c1)c(CC(=O)O)c(C)n2C(=O)c1ccc(Cl)cc1 [INDOMETHACIN]		34.5 µM	
C[C@@H]1O[C@@H]2OC(=O)[C@]3(C)C[C@@H]4[C@](C)(C(=O)C=C5C(=CC(=O)OC5(C)C)[C@@]45CO5)[C@H](C1=O)[C@H]23 [BERKELEYACETAL C]		0.8 µM	Non-Toxic
